Columns and labels:
Anxiety-Related Behavior = test: Elevated plus maze, anxiety-related behavior 8 hours after ethanol withdrawal in mice; assay type: in vivo, Male albino mice of the outbred TO strain
Experimental: Male albino mice of the outbred TO strain (Bantin and Kingman, UK) were used in all studies. The weight ranged from 25 to 35 g, with no more than a 5 g range in any single experiment. The mice were housed, eight per cage, at 21°C ± 1°C, with 55 ± 10% relative humidity, and a 12-hour light/dark cycle with the light phase between 09:00 to 21:00. All mice received ad libitum access to tap water and standard laboratory chow (RM-1, Special Diet Services, UK) until their use in experiments or until their diet was replaced with a liquid diet.
Ethanol was administered in a liquid diet schedule. All mice received control diet for an initial 2-day period. Ethanol treated mice then received a diet containing 3.5% (v/v) ethanol/water for 2 days, followed by a diet containing 7% ethanol for a further 5 days. The average intake was 22 to 30 g/kg/day. Control groups were pair-fed a control diet, balanced isocalorifically to match the ethanol containing diet. There were no differences in the weights of the ethanol-treated and control mice at the end of the treatment periods. When mice were withdrawn from the ethanol (between 07:00 AM and 09:00 AM), they were provided with tap water until their use in experiments.
Gabapentin was dissolved in saline, the solution being made freshly each testing day. Intraperitoneal (i.p.) injections of either gabapentin, 10 mL/kg, or saline, were given immediately on withdrawal from the ethanol treatment, in the studies on the handling responses and 2 hours prior to measurement of audiogenic seizures. In the experiments using the elevated plus maze, gabapentin or saline was injected i.p. at 8 hours after the removal of the ethanol diet, and the mice placed on the plus maze 60 minutes after the injections. In the studies on motor co-ordination (ataxia) and on locomotor activity, gabapentin or saline was injected to ethanol-naive chow fed mice immediately before testing. Measurements were then made for 60 minutes for the ataxia study, and for 30 minutes in the case of the locomotor activity.
Mice were withdrawn from the ethanol diet at 7:00 AM and tested for anxiety-related behavior 8 hours later using a murine elevated plus-maze. It was constructed of perspex with two opposing open arms (30 × 5 × 0.25 cm) and two opposing closed arms (30 × 5 × 15 cm) which extended from a central platform (5 × 5 cm). The floor was of matt black perspex. The animals were acclimatized to the experimental room 1 hour prior to experimentation. Experiments were conducted under dim red light, and each 5 minute session was video-taped for later analysis, by an observer unaware of the prior treatment. During this analysis (Observer 3.0, Noldus Information Technology, Wageningen, Netherlands) measurements were made of the time spent on each arm of the maze, the number of entries onto each arm and rearing activity. Measures were also made as described in Table 3.
The results of the handling response ratings were compared by nonparametric two-way analysis of variance, designed for repeat measures on the same animal. The results of the area under the curve calculations were compared by the Mann-Whitney U-test. The convulsion incidence was analyzed by Fisher's exact probability test. […] The ataxia measurements were analyzed by the Mann-Whitney U-test and the locomotor activity by Student's t-test.

[1] = test system: LPS-Induced Delayed (12 Hours) Allodynia; test: LPS-induced delayed (12 hours) rectal allodynia in rats; assay type: in vivo, Male Wistar rats
From the text: The GABA analogs also have been evaluated for their ability to control and treat gastrointestinal disorders characterized as IBD and IBS. The assay utilized to evaluate the GABA analogs measures the effects of compound on lipopolysaccharide-induced delayed rectal allodynia in rats. Intraperitoneal (IP) injections of the endotoxin lipopolysaccharide (LPS) are known to induce long-lasting hyperalgesia in somatic pain models. The following assay was designed to evaluate the effect of IP injections of LPS on pain visceral threshold in an experimental model of rectal distension.
Male Wistar rats weighing 250 to 350 g were surgically prepared for electromyography, according to a previously described technique. Rats were anesthetized by i.p. injection of acepromazine and ketamine (Imalgene 1000, Rhöne-Mérieux, Lyon, France) at doses of 0.6 and 120 mg/kg, respectively. […] Electrodes were exteriorized on the back of the neck and protected by a glass tube attached to the skin. Animals were individually housed in polypropylene cages and kept in a temperature-controlled room (21°C). They were allowed free access to water and food (UAR pellets, Epinay, France).
Electromyographic recording began 5 days after surgery. The electrical activity of abdominal striated muscles was recorded with an electroencephalograph machine (Mini VIII, Alvar, Paris, France) using a short-time constant (0.03 sec) to remove low-frequency signals (<3 Hz) and a paper speed of 3.6 cm/minute.
Rats were placed in plastic tunnels (6 cm diameter; 25 cm length) where they could not move, escape or turn around, in order to prevent damage to the balloon. They are accustomized to this procedure for 3 or 4 days before rectal distension (RD) in order to minimize stress reaction during experiments. […] The balloon used for distension was an arterial embolectomy catheter (Fogarty, Edwards Laboratories, Inc., Santa Ana, USA). RD was performed by insertion of the balloon (2-mm diameter; 2-cm long) in the rectum, at 1 cm of the anus, the catheter being fixed at the tail. It was inflated progressively by step of 0.4 mL, from 0 to 1.6 mL, each step of inflation lasting 5 minutes. To detect possible leakage, the volume of water introduced in the balloon was checked by complete removal with a syringe at the end of the distension period.
In a second series of experiments, the same group of 8 rats received IP lipopolysaccharide (E Coil, serotype 0111:B4) or its vehicle, at a dose of 1 mg/kg IP, 1 hour after a control rectal distension. […]
Statistical analysis of the number of abdominal contractions occurring during each 5-minute period during RD was performed by one-way ANOVA followed by Student's paired t-test. Values were expressed as the mean ± SEM, and differences were considered significant for p <0.05.

NCC1(CC(=O)O)CCCCC1 [Gabapentin, 1-(aminomethyl)-cyclohexane acetic acid]
decrease in the percentage time spent on the open arms caused by ethanol withdrawal (Anxiety-Related Behavior; gabapentin 50 mg/kg i.p. 60 min before test, p <0.05 vs saline): decreased this effect
decrease in the percentage time spent on the open arms caused by ethanol withdrawal (Anxiety-Related Behavior; gabapentin 100 mg/kg i.p. 60 min before test, p <0.01 vs saline): decreased this effect
mean time on the open arms in control animals (Anxiety-Related Behavior; gabapentin 100 mg/kg i.p., control diet, mean increased): not significantly different from controls with saline
number of protected head dips in control animals (Anxiety-Related Behavior; gabapentin 100 mg/kg i.p., control diet, p <005 (so in the source)): significantly decreased
increase in protected head dips in mice undergoing ethanol withdrawal (Anxiety-Related Behavior; gabapentin 100 mg/kg i.p., p <0.01 compared with saline): significantly reduced
Number of abdominal contractions/5 minutes ([1]; LPS (1 mg/kg) + Gabapentin (3.0 mg/kg (so in the source)) IP 30 min before distension, 12 hours after LPS, 0.4 mL, LPS + vehicle 9.7 ± 1.0, p <0.001): 0.7 ± 0.5 abdominal contractions/5 minutes
% of reduction vs "LPS/vehicle" ([1]; LPS (1 mg/kg) + Gabapentin (3.0 mg/kg (so in the source)) IP, 0.4 mL): -92.8%
Number of abdominal contractions/5 minutes ([1]; LPS (1 mg/kg) + Gabapentin (3.0 mg/kg (so in the source)) IP, 0.8 mL, LPS + vehicle 11.7 ± 1.2): 11.9 ± 0.8 abdominal contractions/5 minutes
Number of abdominal contractions/5 minutes ([1]; LPS (1 mg/kg) + Gabapentin (3.0 mg/kg (so in the source)) IP, 1.2 mL, LPS + vehicle 23.5 ± 2.2): 16.3 ± 3.2 abdominal contractions/5 minutes
